Values joined by “and” are separate entries in the source; they are usually repeats but may differ in a detail not shown here. Equal entries are not always repeated. Toxic doses and inconclusive results are not listed. Peptide text beside a SMILES is read from it. * marks the point of attachment. Cbz = O=C(OCc1ccccc1)*
System: BDF1 mice, B16 melanoma ip, median survival T/C
Test: NCI In Vivo Anticancer Drug Screen. Data for tumor model B16 Melanoma (intraperitoneal) in B6D2F1 (BDF1) mice
Settings: endpoint: median survival time, higher = longer survival
Method in brief: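 Each result divides a survival or tumor-size measurement in the compound-treated group by the same measurement in the vehicle group.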

[1] = dose: 3.12 mg/kg/injection, schedule: Q01DX009 (ip), vehicle: saline
[2] = dose: 6.25 mg/kg/injection, schedule: Q01DX009 (ip), vehicle: saline
[3] = dose: 12.5 mg/kg/injection, schedule: Q01DX009 (ip), vehicle: saline
[4] = dose: 25.0 mg/kg/injection, schedule: Q04DX003 (ip), vehicle: Klucel (hydroxypropylcellulose) (HPC)
[5] = dose: 12.5 mg/kg/injection, schedule: Q01DX009 (ip), vehicle: saline with Tween-80
[6] = dose: 25.0 mg/kg/injection, schedule: Q01DX009 (ip), vehicle: saline with Tween-80
[7] = dose: 50.0 mg/kg/injection, schedule: Q01DX009 (ip), vehicle: saline with Tween-80
[8] = dose: 100.0 mg/kg/injection, schedule: Q01DX009 (ip), vehicle: saline with Tween-80
[9] = dose: 200.0 mg/kg/injection, schedule: Q01DX009 (ip), vehicle: saline with Tween-80
[10] = dose: 25.0 mg/kg/injection, schedule: Q01DX009 (ip), vehicle: saline
[11] = dose: 50.0 mg/kg/injection, schedule: Q01DX009 (ip), vehicle: Klucel (hydroxypropylcellulose) (HPC)
[12] = dose: 100.0 mg/kg/injection, schedule: Q01DX009 (ip), vehicle: Klucel (hydroxypropylcellulose) (HPC)
[13] = dose: 200.0 mg/kg/injection, schedule: Q01DX009 (ip), vehicle: Klucel (hydroxypropylcellulose) (HPC)
[14] = dose: 6.25 mg/kg/injection, schedule: Q01DX009 (ip), vehicle: Klucel (hydroxypropylcellulose) (HPC)
[15] = dose: 12.5 mg/kg/injection, schedule: Q01DX009 (ip), vehicle: Klucel (hydroxypropylcellulose) (HPC)
[16] = dose: 25.0 mg/kg/injection, schedule: Q01DX009 (ip), vehicle: Klucel (hydroxypropylcellulose) (HPC)

C(=N/NC1=NCCN1)/c1c2ccccc2c(/C=N\NC2=NCCN2)c2ccccc12
T/C (dose: 0.78 mg/kg/injection, schedule: Q01DX009 (ip), vehicle: saline): 156 % of control
T/C (dose: 1.56 mg/kg/injection, schedule: Q01DX009 (ip), vehicle: saline): 181 % of control
T/C [1]: 205 % of control
T/C [2]: 225 % of control
T/C [3]: 294 % of control

c1ccc(C(=C2CCC2)c2c3ccccc3cc3ccccc23)cc1
T/C [4]: 102 % of control
T/C (dose: 50.0 mg/kg/injection, schedule: Q04DX003 (ip), vehicle: Klucel (hydroxypropylcellulose) (HPC)): 91 % of control
T/C (dose: 100.0 mg/kg/injection, schedule: Q04DX003 (ip), vehicle: Klucel (hydroxypropylcellulose) (HPC)): 105 % of control

[Cl][Mn][Cl]
T/C (dose: 6.25 mg/kg/injection, schedule: Q01DX009 (ip), vehicle: water): 100 % of control
T/C (dose: 12.5 mg/kg/injection, schedule: Q01DX009 (ip), vehicle: water): 98 % of control
T/C (dose: 17.8 mg/kg/injection, schedule: Q01DX009 (ip), vehicle: saline): 104 % of control
T/C (dose: 17.8 mg/kg/injection, schedule: Q01DX009 (sc), vehicle: water): 101 % of control
T/C (dose: 25.0 mg/kg/injection, schedule: Q01DX009 (ip), vehicle: water): 109 % of control
T/C (dose: 26.7 mg/kg/injection, schedule: Q01DX009 (ip), vehicle: saline): 110 % of control and 114 % of control
T/C (dose: 26.7 mg/kg/injection, schedule: Q01DX009 (sc), vehicle: water): 99 % of control
T/C (dose: 40.0 mg/kg/injection, schedule: Q01DX009 (ip), vehicle: saline): 107 % of control and 117 % of control
T/C (dose: 40.0 mg/kg/injection, schedule: Q01DX009 (sc), vehicle: water): 104 % of control
T/C (dose: 50.0 mg/kg/injection, schedule: Q01DX009 (ip), vehicle: water): 114 % of control
T/C (dose: 60.0 mg/kg/injection, schedule: Q01DX009 (ip), vehicle: saline): 106 % of control and 119 % of control
T/C (dose: 60.0 mg/kg/injection, schedule: Q01DX009 (ip), vehicle: water): 163 % of control
T/C (dose: 60.0 mg/kg/injection, schedule: Q01DX009 (sc), vehicle: water): 104 % of control
T/C (dose: 90.0 mg/kg/injection, schedule: Q01DX009 (sc), vehicle: water): 104 % of control

COC(=O)/C(C)=C/C=C/C(OC)C(OC(N)=O)/C(C)=C/C(C)C(O)C(CC(C)CC1=C(N)C(=O)C=C(N)C1=O)OC (stereo not drawn)
T/C (dose: 12.5 mg/kg/injection, schedule: Q01DX005 (ip), vehicle: other): 94 % of control
T/C (dose: 25.0 mg/kg/injection, schedule: Q01DX005 (ip), vehicle: other): 95 % of control
T/C (dose: 50.0 mg/kg/injection, schedule: Q01DX005 (ip), vehicle: other): 108 % of control
T/C (dose: 100.0 mg/kg/injection, schedule: Q01DX005 (ip), vehicle: other): 93 % of control

ClC1CCC[N-]C1.ClC1CCC[N-]C1.O=C(O)CC(=O)O.[Pt+2] (stereo not drawn)
T/C [5]: 96 % of control
T/C [6]: 95 % of control
T/C [7]: 94 % of control
T/C [8]: 93 % of control
T/C [9]: 89 % of control

CC(C)CNC(=O)Nc1ccccc1C(F)(F)F
T/C [6]: 97 % of control
T/C [7]: 96 % of control
T/C [8]: 86 % of control and 93 % of control
T/C [9]: 105 % of control
T/C (dose: 400.0 mg/kg/injection, schedule: Q01DX009 (ip), vehicle: saline with Tween-80): 97 % of control

CC(=O)OCCN1CC1
T/C [1]: 109 % of control
T/C [2]: 103 % of control
T/C [3]: 100 % of control
T/C [10]: 95 % of control

COC(=O)C1CCCN1C(=O)C(CCCCNC(=O)OCc1ccccc1)NC(=O)OCc1ccccc1 (stereo not drawn) (Cbz-Lys(Cbz)-Pro-OMe; configuration not given here)
T/C [6]: 94 % of control
T/C [7]: 98 % of control
T/C [8]: 112 % of control
T/C [9]: 108 % of control

CNC(=S)N/N=C(\C=N\NC(=S)NC)c1ccc(C)cc1
T/C [11]: 101 % of control
T/C [12]: 90 % of control
T/C [13]: 89 % of control

C=CC=O
T/C (dose: 0.45 mg/kg/injection, schedule: Q01DX009 (ip), vehicle: saline): 95 % of control
T/C (dose: 0.9 mg/kg/injection, schedule: Q01DX009 (ip), vehicle: saline): 88 % of control
T/C (dose: 1.8 mg/kg/injection, schedule: Q01DX009 (ip), vehicle: saline): 90 % of control

O=CN(SSN(C=O)C1CCCCC1)C1CCCCC1
T/C [5]: 110 % of control
T/C [6]: 100 % of control
T/C [7]: 98 % of control
T/C [8]: 102 % of control
T/C [9]: 88 % of control

CC1OC(n2ccc(NC(=O)c3ccc(NC(=O)C(C)(N)CO)cc3)nc2=O)CC(O)C1OC1OC(C)C(N(C)C)C(O)C1O (stereo not drawn)
T/C (dose: 2.5 mg/kg/injection, schedule: Q01DX009 (ip), vehicle: Klucel (hydroxypropylcellulose) (HPC)): 117 % of control
T/C (dose: 5.0 mg/kg/injection, schedule: Q01DX009 (ip), vehicle: Klucel (hydroxypropylcellulose) (HPC)): 102 % of control
T/C (dose: 10.0 mg/kg/injection, schedule: Q01DX009 (ip), vehicle: Klucel (hydroxypropylcellulose) (HPC)): 103 % of control

CC[n+]1ccc(/C=C\c2c(Cl)cccc2Cl)cc1
T/C [14]: 94 % of control
T/C [15]: 88 % of control
T/C [16]: 88 % of control

COC1=CC(=O)C(O)=C(CC2(C)C(C)CCC3(C)C2CCCC3(C)C)C1=O (stereo not drawn)
T/C (dose: 3.12 mg/kg/injection, schedule: Q01DX009 (ip), vehicle: Klucel (hydroxypropylcellulose) (HPC)): 91 % of control
T/C [14]: 96 % of control
T/C [15]: 96 % of control
T/C [16]: 104 % of control
T/C [11]: 100 % of control
T/C [12]: 100 % of control

COc1cc([C@@H]2c3cc4c(c(O)c3C[C@H]3COC(=O)[C@@H]32)OCO4)cc(OC)c1O
T/C (dose: 0.12 mg/kg/injection, schedule: Q01DX009 (ip), vehicle: saline): 97 % of control
T/C (dose: 0.12 mg/kg/injection, schedule: Q01DX009 (ip), vehicle: suspension in saline): 100 % of control
T/C (dose: 0.25 mg/kg/injection, schedule: Q01DX009 (ip), vehicle: saline): 97 % of control
T/C (dose: 0.25 mg/kg/injection, schedule: Q01DX009 (ip), vehicle: suspension in saline): 96 % of control
T/C (dose: 0.5 mg/kg/injection, schedule: Q01DX009 (ip), vehicle: saline): 107 % of control
T/C (dose: 0.5 mg/kg/injection, schedule: Q01DX009 (ip), vehicle: suspension in saline): 105 % of control
T/C (dose: 1.0 mg/kg/injection, schedule: Q01DX009 (ip), vehicle: saline): 95 % of control

CCOC(=O)N1c2ccccc2C=CC1OCC (stereo not drawn)
T/C (dose: 6.25 mg/kg/injection, schedule: Q04DX003 (ip), vehicle: Klucel (hydroxypropylcellulose) (HPC)): 105 % of control
T/C (dose: 12.5 mg/kg/injection, schedule: Q04DX003 (ip), vehicle: Klucel (hydroxypropylcellulose) (HPC)): 105 % of control
T/C [4]: 89 % of control and 105 % of control

Cc1cc(N(CC(C)Br)CC(C)Br)ccc1N=Nc1ccccc1C(=O)O (stereo not drawn)
T/C [5]: 165 % of control and 185 % of control

Cc1c2cc(Cl)c3ccccc3c2c[n+]2ccccc12
T/C (dose: 3.12 mg/kg/injection, schedule: Q01DX009 (ip), vehicle: saline with Tween-80): 110 % of control
T/C (dose: 6.25 mg/kg/injection, schedule: Q01DX009 (ip), vehicle: saline with Tween-80): 113 % of control
T/C [5]: 110 % of control
T/C [6]: 115 % of control
T/C [7]: 115 % of control

CN(C)CCCN1c2ccccc2Sc2c(Cl)cc(Cl)cc21
T/C [1]: 97 % of control
T/C [2]: 105 % of control
T/C [3]: 102 % of control
T/C [10]: 87 % of control

C[C@]12CC[C@@H]3c4ccc(O)cc4CC[C@H]3[C@@H]1C[C@@H](O)[C@@H]2O
T/C [11]: 102 % of control
T/C [12]: 100 % of control
T/C [13]: 90 % of control

CC(NC(=O)c1ccccc1)C(=O)NC(CSC(c1ccccc1)c1ccccc1)C(=O)O (stereo not drawn)
T/C (dose: 12.5 mg/kg/injection, schedule: Q04DX003 (ip), vehicle: saline): 107 % of control
T/C (dose: 25.0 mg/kg/injection, schedule: Q04DX003 (ip), vehicle: saline): 110 % of control
T/C (dose: 50.0 mg/kg/injection, schedule: Q04DX003 (ip), vehicle: saline): 89 % of control

Reference: PubChem BioAssay AID192 (DTP/NCI, 2004)
